Data published in patent US20240367095A1, “TERTIARY ALKANOLAMINE FOR GAS TREATING” (Dow Global Technologies LLC, priority 2021, published 2024).

Experiment: physchem

SMILES	pKa
CN(CCO)CC(O)CO (stereo not shown) [HEMAPD]	8.45
CCN(CC(O)CO)C(C)CO (stereo not shown) [EHMEAPD, 3-[ethyl(2-hydroxy-1-methylethyl)amino]-1,2-propanediol]	8.62
CCN(CCO)CC(O)CO (stereo not shown) [HEEAPD]	8.54
CC(CO)N(C)CC(O)CO (stereo not shown) [HMEMAPD, 3-[(2-hydroxy-1-methylethyl)methylamino]-1,2-propanediol]	8.53
CCC(CO)N(C)CC(O)CO (stereo not shown) [HMPMAPD, 3-[[1-(hydroxymethyl)propyl]methylamino]-1,2-propanediol]	8.53
CCCCN(CCO)CC(O)CO (stereo not shown) [HEBAPD]	8.54
CCCN(CCO)CC(O)CO (stereo not shown) [HEPAPD]	8.54
